Tests used:
[1] = refractive index (Na D-line) (dimensionless); conditions: 101.33 kPa, Liquid
[2] = for mass density / speed of sound / viscosity: 100 kPa, Liquid
[3] = xn = mol fraction of the nth substance listed; conditions: x2 = 0; for mass density / speed of sound / viscosity: 100 kPa, Liquid
[4] = refractive index (Na D-line) (dimensionless); xn = mol fraction of the nth substance listed; conditions: 100 kPa, Liquid, x2 = 0

COc1ccc(C=O)cc1 [4-methoxybenzaldehyde]
Conditions | mass density, [2] [kg/m3] | refractive index, [1] | speed of sound, [2] [m/s] | surface tension liquid-gas, [2] [mN/m] | viscosity, [2] [mPa·s]
303.15 K | 1125.5 | 1.5571 | 1684 | 99.08 | 3.275
313.15 K | 1119.1 | 1.5488 | 1631 | 96.11 | 2.97
323.15 K | 1114.1 | 1.5463 | 1571 | 94.1 | 2.442

Clc1ccccc1 [chlorobenzene]
Conditions | mass density, [2] [kg/m3] | refractive index, [1] | speed of sound, [2] [m/s] | surface tension liquid-gas, [2] [mN/m] | viscosity, [2] [mPa·s]
303.15 K | 1102 | – | 1220 | 33.6 | 0.7105
313.15 K | 1080 | – | – | 32.3 | 0.6914
323.15 K | 1067.4 | 1.548 | 695 | 31.26 | 0.5543

Clc1ccccc1 [chlorobenzene] + COc1ccc(C=O)cc1
Conditions | mass density, [3] [kg/m3] | refractive index, [4] | speed of sound, [3] [m/s] | surface tension liquid-gas, [3] [mN/m] | viscosity, [3] [mPa·s]
303.15 K | 1102 | 1.559 | 1220 | 33.6 | 0.7105
313.15 K | 1080 | 1.5509 | – | 32.3 | 0.6914
323.15 K | 1067.4 | 1.548 | 695 | 31.26 | 0.5543

Source: the NIST ThermoML archive (doi:10.1021/je700714m)
